Test results taken from ChEMBL document CHEMBL3112512, “Microwave induced three-component synthesis and antimycobacterial activity of benzopyrazolo[3,4-b]quinolindiones” (2014).
Values after ≈ are worked out from the molar mass of the structure shown.

Experiments:
Format in all cases: functional
[1] = tested on: Mycobacterium intracellulare; assay: Antimycobacterial activity against Mycobacterium intracellulare MNT1408 clinical isolate by MTT assay
[2] = tested on: Mycobacterium scrofulaceum; assay: Antimycobacterial activity against Mycobacterium scrofulaceum MNT1193 clinical isolate by MTT assay
Mycobacterium szulgai = assay: Antimycobacterial activity against Mycobacterium szulgai MNT1100 clinical isolate by MTT assay
[3] = tested on: Mycolicibacterium fortuitum; assay: Antimycobacterial activity against Mycobacterium fortuitum MNT1073 clinical isolate by MTT assay
Mycobacteroides chelonae = assay: Antimycobacterial activity against Mycobacterium chelonae MNT1407 clinical isolate by MTT assay
[4] = tested on: Mycobacterium tuberculosis; assay: Antimycobacterial activity against streptomycin, isoniazid, rifampicin, ethambutol and pirazynamide-susceptible Mycobacterium tuberculosis H37Rv ATCC 27294 by MTT assay

Compound | MIC [1] | MIC [2] | MIC (Mycobacterium szulgai) | MIC [3] | MIC (Mycobacteroides chelonae) | MIC [4]
Cc1nn(-c2ccccc2)c2nc3c(c(-c4ccccc4)c12)C(=O)C(=O)c1ccccc1-3 | > 32 µg/mL | > 32 µg/mL | > 32 µg/mL | > 32 µg/mL | > 32 µg/mL | ≤ 2 µg/mL
Cc1ccc(-c2c3c(nc4c2c(C)nn4-c2ccccc2)-c2ccccc2C(=O)C3=O)cc1 | > 32 µg/mL | > 32 µg/mL | > 32 µg/mL | > 32 µg/mL | > 32 µg/mL | 4 µg/mL (≈ 9.31 µM)
COc1cc(-c2c3c(nc4c2c(C)nn4-c2ccccc2)-c2ccccc2C(=O)C3=O)cc(OC)c1OC | > 32 µg/mL | > 32 µg/mL | > 32 µg/mL | > 32 µg/mL | > 32 µg/mL | > 32 µg/mL
Cc1nn(-c2ccccc2)c2nc3c(c(-c4ccc(Cl)cc4)c12)C(=O)C(=O)c1ccccc1-3 | > 32 µg/mL | > 32 µg/mL | > 32 µg/mL | > 32 µg/mL | > 32 µg/mL | > 32 µg/mL
Cc1nn(-c2ccccc2)c2nc3c(c(-c4ccc(F)cc4)c12)C(=O)C(=O)c1ccccc1-3 | > 32 µg/mL | > 32 µg/mL | > 32 µg/mL | > 32 µg/mL | > 32 µg/mL | 4 µg/mL (≈ 9.23 µM)
O=C1C(=O)c2ccccc2C2=C1C(c1ccccc1)c1c(-c3ccccc3)n[nH]c1N2 (stereo not given) | > 32 µg/mL | > 32 µg/mL | > 32 µg/mL | > 32 µg/mL | > 32 µg/mL | > 32 µg/mL
Cc1ccc(C2C3=C(Nc4[nH]nc(-c5ccccc5)c42)c2ccccc2C(=O)C3=O)cc1 (stereo not given) | > 32 µg/mL | > 32 µg/mL | > 32 µg/mL | > 32 µg/mL | > 32 µg/mL | > 32 µg/mL
COc1ccc(C2C3=C(Nc4[nH]nc(-c5ccccc5)c42)c2ccccc2C(=O)C3=O)cc1 (stereo not given) | > 32 µg/mL | > 32 µg/mL | > 32 µg/mL | > 32 µg/mL | > 32 µg/mL | > 32 µg/mL
Cc1ccc(-c2n[nH]c3c2C(c2ccccc2)C2=C(N3)c3ccccc3C(=O)C2=O)cc1 (stereo not given) | > 32 µg/mL | > 32 µg/mL | > 32 µg/mL | > 32 µg/mL | > 32 µg/mL | 16 µg/mL (≈ 38.3 µM)
O=C1C(=O)c2ccccc2C2=C1C(c1ccccc1)c1c(-c3ccc(Cl)cc3)n[nH]c1N2 (stereo not given) | > 32 µg/mL | > 32 µg/mL | > 32 µg/mL | > 32 µg/mL | > 32 µg/mL | > 32 µg/mL
O=C1C(=O)c2ccccc2C2=C1C(c1ccccc1)c1c(-c3ccc([N+](=O)[O-])cc3)n[nH]c1N2 (stereo not given) | > 32 µg/mL | > 32 µg/mL | > 32 µg/mL | > 32 µg/mL | > 32 µg/mL | 32 µg/mL (≈ 71.4 µM)
Cc1ccc(-c2n[nH]c3nc4c(c(-c5ccc([N+](=O)[O-])cc5)c23)C(=O)C(=O)c2ccccc2-4)cc1 | > 32 µg/mL | > 32 µg/mL | > 32 µg/mL | > 32 µg/mL | > 32 µg/mL | > 32 µg/mL
COc1ccc(-c2c3c(nc4[nH]nc(-c5ccc(Cl)cc5)c24)-c2ccccc2C(=O)C3=O)cc1 | > 32 µg/mL | > 32 µg/mL | > 32 µg/mL | > 32 µg/mL | > 32 µg/mL | > 32 µg/mL
NNC(=O)c1ccncc1 [ISONIAZID] | > 0.5 µg/mL | > 0.5 µg/mL | > 0.5 µg/mL | > 0.5 µg/mL | > 0.5 µg/mL | 0.25 µg/mL (≈ 1.82 µM)
CO[C@H]1/C=C/O[C@@]2(C)Oc3c(C)c(O)c4c(O)c(c(/C=N/N5CCN(C)CC5)c(O)c4c3C2=O)NC(=O)/C(C)=C\C=C\[C@H](C)[C@H](O)[C@@H](C)[C@@H](O)[C@@H](C)[C@H](OC(C)=O)[C@@H]1C [RIFAMPIN] | > 0.5 µg/mL | > 0.5 µg/mL | > 0.5 µg/mL | > 0.5 µg/mL | 0.125 µg/mL (≈ 0.152 µM) | 0.125 µg/mL (≈ 0.152 µM)
